In test [1] the target is E3 ubiquitin-protein ligase Mdm2 (Homo sapiens, UniProt Q00987). In words: Binding affinity to MDM2.
Test [2] has as its system HeLa. The test can be described thus: Induction of intracellular protein degradation in human HeLa cells expressing androgen receptor assessed as decrease in total AR protein levels at 10 uM after 7 hrs by Western blot. It is filed as functional, cell-based. Background: A western blot detects proteins with antibodies after separation by electrophoresis.
Test [3] relates to HeLa. The test can be described thus: Inhibition of intracellular protein degradation in human HeLa cells expressing androgen receptor assessed as effect on total AR protein levels at 10 uM after 7 hrs by Western blot in presence of epoxomicin. It is filed as functional, cell-based.

Activity calls are given as the source filed them. The calls are words filed in the database; no cut-off is given here.

Chain of E3 ubiquitin-protein ligase Mdm2 (Q00987 whole entry): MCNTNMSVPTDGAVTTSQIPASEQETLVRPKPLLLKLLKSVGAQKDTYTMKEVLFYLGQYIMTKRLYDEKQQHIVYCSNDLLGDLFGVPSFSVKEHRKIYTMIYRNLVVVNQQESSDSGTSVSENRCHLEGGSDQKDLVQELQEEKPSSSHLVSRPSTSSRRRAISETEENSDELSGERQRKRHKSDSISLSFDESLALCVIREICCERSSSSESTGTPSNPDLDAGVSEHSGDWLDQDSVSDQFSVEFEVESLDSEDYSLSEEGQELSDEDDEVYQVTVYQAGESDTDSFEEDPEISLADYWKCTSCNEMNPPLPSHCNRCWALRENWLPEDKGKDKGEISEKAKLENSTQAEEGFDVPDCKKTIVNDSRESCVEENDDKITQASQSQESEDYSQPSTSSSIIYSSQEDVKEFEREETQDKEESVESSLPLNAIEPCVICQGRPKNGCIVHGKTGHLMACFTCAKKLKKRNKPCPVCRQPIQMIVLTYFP

Regarding `COc1ccc(C2=NC(c3ccc(Cl)cc3)C(c3ccc(Cl)cc3)N2)c(OC(C)C)c1` (stereo not drawn), the IC50 in test [1] was found to be 90 nM.
For `COc1ccc(C2=N[C@H](c3ccc(Cl)cc3)[C@H](c3ccc(Cl)cc3)N2C(=O)N2CCN(CC(=O)NCCOCCOCCOCC(=O)Nc3ccc(OC[C@](C)(O)C(=O)Nc4ccc([N+](=O)[O-])c(C(F)(F)F)c4)cc3)C(=O)C2)c(OC(C)C)c1`, the outcome in test [2] and in test [3] was Active.

By IC50 is commonly meant the concentration that inhibits the measured activity by half. Read a high IC50 as weaker potency in that assay.

The record behind these values is ChEMBL document CHEMBL1153888, “Targeted intracellular protein degradation induced by a small molecule: En route to chemical proteomics” (Bioorg Med Chem Lett, 2008).
